The source of these data is patent US8492371B2, “Compounds as cannabinoid receptor ligands” (priority 2009, dated 2013).

For test [1] the following is noted: cited from earlier work.
The conditions of test [2]: neuropathic, incisional, chronic and acute inflammatory pain; cited from earlier work.
The conditions of test [3]: low doses, apolipoprotein E knockout mice; inhibited by SR144528; cited from earlier work.
Test [4] relates to microglial. To be noted: in vitro; blocked by SR144528; cited from earlier work.
For test [5] the following is noted: rat formalin model of persistent pain; cited from earlier work.
For test [6] the following is noted: acute thermal, persistent, inflammatory and neuropathic pain models; cited from earlier work.
For test [7], the target named is T1, rat CB2 receptors (Rattus norvegicus, UniProt Q9QZN9).
T1 construct: expressed in transfected cells; host or cells: HEK293
T1 sequence (Q9QZN9 1-360): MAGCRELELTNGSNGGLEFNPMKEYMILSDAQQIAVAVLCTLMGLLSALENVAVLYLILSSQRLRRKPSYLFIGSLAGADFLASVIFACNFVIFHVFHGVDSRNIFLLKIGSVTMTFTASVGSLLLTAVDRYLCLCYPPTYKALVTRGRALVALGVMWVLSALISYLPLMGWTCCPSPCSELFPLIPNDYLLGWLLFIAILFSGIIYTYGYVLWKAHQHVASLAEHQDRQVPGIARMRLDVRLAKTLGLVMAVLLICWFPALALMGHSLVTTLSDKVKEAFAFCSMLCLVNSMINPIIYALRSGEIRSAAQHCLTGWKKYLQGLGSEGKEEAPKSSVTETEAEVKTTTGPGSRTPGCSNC
Nature of the test: Rat CB2 radioligand binding assay ([3H]CP-55,940 competition). An outline of the steps: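 Membranes from HEK293 cells stably expressing rat CB2 (20 μg/well) incubated 45 min at 30 °C with 0.5 nM [3H]CP-55,940 and five competitor concentrations in Tris/EDTA/MgCl2 buffer with 0.5 mg/mL BSA, pH 7.4. Filtration and scintillation counting; nonspecific binding with 10 μM unlabeled CP-55,940.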

The target of test [8] is T2, human CB2 receptors (Homo sapiens, UniProt P34972).
T2 construct: expressed in transfected cells; host or cells: HEK293
The test is described as follows: Human CB2 radioligand binding assay ([3H]CP-55,940 competition). An outline of the steps: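 Membranes from HEK293 cells stably expressing human CB2 (5 μg/well) incubated 90 min at 30 °C with 0.5 nM [3H]CP-55,940 and five concentrations of displacer (0.01 nM–10 μM) in pH 7.4 Tris/EDTA/MgCl2 buffer with fatty acid free BSA. Bound radioactivity counted after filtration; nonspecific binding defined with 10 μM unlabeled CP-55,940.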

A word on the Ki: it is the dissociation constant of the complex between target and ligand, obtained from inhibition or displacement.

T2 sequence (P34972 whole entry): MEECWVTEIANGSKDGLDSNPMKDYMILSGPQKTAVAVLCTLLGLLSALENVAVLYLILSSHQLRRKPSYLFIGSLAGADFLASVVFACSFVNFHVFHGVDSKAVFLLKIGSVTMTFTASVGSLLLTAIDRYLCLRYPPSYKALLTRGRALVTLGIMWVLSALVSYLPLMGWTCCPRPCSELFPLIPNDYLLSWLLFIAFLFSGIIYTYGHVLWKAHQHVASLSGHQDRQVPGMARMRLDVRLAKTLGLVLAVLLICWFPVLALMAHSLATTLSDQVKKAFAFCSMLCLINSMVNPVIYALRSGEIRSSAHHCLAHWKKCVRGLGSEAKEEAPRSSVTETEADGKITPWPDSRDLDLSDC

For SR144528, the ovariectomy-induced bone loss result in test [1] (mice, model for post-menopausal osteoporosis) is recorded as “reverse ovariectomy-induced bone loss”. In test [1] (mouse, in vivo), the osteoclast activity entry is “inhibit osteoclast activity”.

`COc1ccc2c(c1)c(CCN1CCOCC1)c(C)n2C(=O)c1cccc(Cl)c1Cl` [GW405833]: the “efficacy in pain models” value in test [2] is reported as “is efficacious”. For the molecule (−)-Δ^9-Tetrahydrocannabinol [THC], the “progression of atherosclerotic lesions” value in test [3] is given as “slowed the progression of atherosclerotic lesions”. In the case of `CCCC(C)(C)c1ccc2c(c1)OC(C)(C)[C@@H]1CC=C(C)C[C@@H]21` [JWH-133], the “effect on β-amyloid-induced microglial activation and neurotoxicity” value in test [4] is “abrogated β-amyloid-induced microglial activation and neurotoxicity”. For `CCCCCCC(C)(C)c1cc(OC)c([C@@H]2C=C(CO)[C@@H]3C[C@H]2C3(C)C)c(OC)c1` [HU-308], the antinociceptive response entry in test [5] is listed as “elicits an antinociceptive response”. As for `CN1CCCCC1Cn1cc(C(=O)c2cc([N+](=O)[O-])ccc2I)c2ccccc21` (centres unmarked) [AM-1241], the analgesic efficacy result in test [6] was “exhibits robust analgesic efficacy”.

Turning to `Cn1c(C(C)(C)C)c/c(=N\C(=O)c2cc(C(F)(F)F)ccc2/C=N\OC(C)(C)C)n1C[C@H]1CCCO1` [Example 109, 2-[(Z)-(tert-butoxyimino)methyl]-N-{(3E)-5-tert-butyl-1-methyl-2-[(2R)-tetrahydrofuran-2-ylmethyl]-1,2-dihydro-3H-pyrazol-3-ylidene}-5-(trifluoromethyl)benzamide], the Ki was 15 nM in test [7] and 23 nM in test [8]. `COc1ccc(C(F)(F)F)cc1C(=O)/N=c1\cc(C(C)(C)C)n(C)n1CC1CCOC1` (centres unmarked) [Example 85, N-[(3E)-5-tert-butyl-1-methyl-2-(tetrahydrofuran-3-ylmethyl)-1,2-dihydro-3H-pyrazol-3-ylidene]-2-methoxy-5-(trifluoromethyl)benzamide]: the Ki in test [7] was determined as 13 nM; in test [8] it was 87 nM. In the same order, the values of `Cn1c(C(C)(C)C)c/c(=N\C(=O)c2cc(C(F)(F)F)ccc2OC(C)(C)C)n1C[C@H]1CCCO1` [Example 25, 2-tert-butoxy-N-{(3E)-5-tert-butyl-1-methyl-2-[(2R)-tetrahydrofuran-2-ylmethyl]-1,2-dihydro-3H-pyrazol-3-ylidene}-5-(trifluoromethyl)benzamide] are 40 nM and 101 nM. On to `COc1ccc(C(F)(F)F)cc1C(=O)/N=c1\cc(C(C)(C)C)n(C)n1CC1CC[C@@H](C)O1` (mixture of isomers) [Example 64, N-((3E)-5-tert-butyl-1-methyl-2-{[(5R)-5-methyltetrahydrofuran-2-yl]methyl}-1,2-dihydro-3H-pyrazol-3-ylidene)-2-methoxy-5-(trifluoromethyl)benzamide], for which the Ki in test [7] stood at 6.2 nM; in test [8], 30 nM. In the same order, the values of `Cc1ccc(C(F)(F)F)cc1C(=O)/N=c1\cc(C(C)(C)C)n(C)n1C[C@H]1CCCO1` [Example 86] are 3.3 nM and 11 nM.
